From patent US9199935B2, “Pharmaceutically active piperidine derivatives” (Acetelion Pharmaceuticals Ltd., priority 2001, dated 2015)

Experiments:
human recombinant GCS = target: T1, human recombinant GCS (Homo sapiens, UniProt Q16739); assay: Human GCS inhibition, recombinant enzyme expressed in insect cells; format: biochemical
T1 construct: made in house; host or cells: insect cells
T1 sequence (Q16739 1-394): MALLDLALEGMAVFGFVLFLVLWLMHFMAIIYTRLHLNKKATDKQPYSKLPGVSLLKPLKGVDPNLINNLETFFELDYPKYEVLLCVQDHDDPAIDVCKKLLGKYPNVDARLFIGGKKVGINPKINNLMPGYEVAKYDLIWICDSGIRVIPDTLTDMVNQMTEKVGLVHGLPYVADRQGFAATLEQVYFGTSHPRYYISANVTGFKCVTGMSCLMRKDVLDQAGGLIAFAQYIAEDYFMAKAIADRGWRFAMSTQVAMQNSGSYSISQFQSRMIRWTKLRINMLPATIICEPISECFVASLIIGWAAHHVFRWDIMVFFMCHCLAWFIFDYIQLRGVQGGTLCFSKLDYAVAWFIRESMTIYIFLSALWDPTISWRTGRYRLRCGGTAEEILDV

Human α-glucosidase = Human α-glucosidase assay, p-nitrophenyl linked substrates; format: biochemical
[1] = target: Jack bean β-galactosidase; assay: Jack bean β-galactosidase inhibition; format: biochemical
[2] = target: Porcine intestinal lactase (Sus scrofa, UniProt F1S0D7); assay: Porcine intestinal lactase inhibition; format: biochemical; conditions: read-out: Porcine intestinal lactase (Ki μM)
Sequence of Porcine intestinal lactase (F1S0D7 840-1898): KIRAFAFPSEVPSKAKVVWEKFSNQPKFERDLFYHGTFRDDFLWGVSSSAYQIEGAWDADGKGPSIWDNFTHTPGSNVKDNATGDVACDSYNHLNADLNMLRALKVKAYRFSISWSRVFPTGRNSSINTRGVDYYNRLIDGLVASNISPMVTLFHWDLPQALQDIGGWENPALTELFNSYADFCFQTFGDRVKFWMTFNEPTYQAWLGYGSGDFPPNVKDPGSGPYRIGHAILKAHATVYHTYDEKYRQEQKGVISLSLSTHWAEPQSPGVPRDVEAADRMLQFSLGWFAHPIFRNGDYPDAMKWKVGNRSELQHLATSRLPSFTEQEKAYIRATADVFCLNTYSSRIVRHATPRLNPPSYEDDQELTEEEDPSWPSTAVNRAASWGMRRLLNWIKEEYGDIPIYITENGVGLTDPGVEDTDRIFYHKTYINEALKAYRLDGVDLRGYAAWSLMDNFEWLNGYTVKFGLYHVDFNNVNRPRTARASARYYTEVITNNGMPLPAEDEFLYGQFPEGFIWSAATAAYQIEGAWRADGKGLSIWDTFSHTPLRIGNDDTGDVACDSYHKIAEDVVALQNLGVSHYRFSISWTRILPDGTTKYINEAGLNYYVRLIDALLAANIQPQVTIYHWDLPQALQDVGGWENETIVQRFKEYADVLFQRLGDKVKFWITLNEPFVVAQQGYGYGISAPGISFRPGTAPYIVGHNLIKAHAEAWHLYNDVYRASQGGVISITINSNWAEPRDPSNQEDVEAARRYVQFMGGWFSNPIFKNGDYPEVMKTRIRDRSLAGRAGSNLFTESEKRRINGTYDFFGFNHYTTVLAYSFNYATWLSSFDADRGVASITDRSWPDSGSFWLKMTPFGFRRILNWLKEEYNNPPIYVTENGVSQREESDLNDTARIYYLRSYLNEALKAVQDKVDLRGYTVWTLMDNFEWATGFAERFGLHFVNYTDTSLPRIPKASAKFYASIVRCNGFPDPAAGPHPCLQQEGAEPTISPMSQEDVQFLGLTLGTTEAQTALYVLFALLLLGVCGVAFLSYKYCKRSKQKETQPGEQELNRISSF

Human β-galactosidase = target: T2, Human β-galactosidase (Homo sapiens, UniProt P16278); assay: Human β-galactosidase assay; format: biochemical
T2 sequence (P16278 29-677): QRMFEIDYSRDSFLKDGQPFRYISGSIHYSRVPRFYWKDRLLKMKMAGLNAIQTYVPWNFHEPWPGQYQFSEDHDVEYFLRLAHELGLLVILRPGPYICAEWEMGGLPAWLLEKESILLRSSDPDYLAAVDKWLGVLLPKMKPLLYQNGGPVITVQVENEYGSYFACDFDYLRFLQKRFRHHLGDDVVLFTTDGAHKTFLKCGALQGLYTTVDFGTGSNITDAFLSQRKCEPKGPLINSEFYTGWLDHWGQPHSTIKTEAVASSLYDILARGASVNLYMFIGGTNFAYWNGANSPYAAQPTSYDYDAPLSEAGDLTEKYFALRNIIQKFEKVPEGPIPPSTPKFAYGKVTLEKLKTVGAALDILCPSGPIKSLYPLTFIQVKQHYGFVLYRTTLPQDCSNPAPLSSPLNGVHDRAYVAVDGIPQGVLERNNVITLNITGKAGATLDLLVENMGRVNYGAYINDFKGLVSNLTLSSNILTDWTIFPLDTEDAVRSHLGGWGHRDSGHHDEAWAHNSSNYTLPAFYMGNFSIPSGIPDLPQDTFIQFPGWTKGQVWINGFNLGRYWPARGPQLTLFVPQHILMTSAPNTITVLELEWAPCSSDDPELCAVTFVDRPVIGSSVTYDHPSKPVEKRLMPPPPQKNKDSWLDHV
Method: The glucosidase assays were performed as described (Biochemical Genetics, A Laboratory Manual, Oxford University Press) except that p-nitrophenyl linked substrates were used instead of methylumbelliferone linked substrates.

[3] = target: T3, Mouse ceramide β-galactosidase (Mus musculus, UniProt P54818); assay: Mouse ceramide β-galactosidase inhibition; format: biochemical
T3 sequence (P54818 43-684): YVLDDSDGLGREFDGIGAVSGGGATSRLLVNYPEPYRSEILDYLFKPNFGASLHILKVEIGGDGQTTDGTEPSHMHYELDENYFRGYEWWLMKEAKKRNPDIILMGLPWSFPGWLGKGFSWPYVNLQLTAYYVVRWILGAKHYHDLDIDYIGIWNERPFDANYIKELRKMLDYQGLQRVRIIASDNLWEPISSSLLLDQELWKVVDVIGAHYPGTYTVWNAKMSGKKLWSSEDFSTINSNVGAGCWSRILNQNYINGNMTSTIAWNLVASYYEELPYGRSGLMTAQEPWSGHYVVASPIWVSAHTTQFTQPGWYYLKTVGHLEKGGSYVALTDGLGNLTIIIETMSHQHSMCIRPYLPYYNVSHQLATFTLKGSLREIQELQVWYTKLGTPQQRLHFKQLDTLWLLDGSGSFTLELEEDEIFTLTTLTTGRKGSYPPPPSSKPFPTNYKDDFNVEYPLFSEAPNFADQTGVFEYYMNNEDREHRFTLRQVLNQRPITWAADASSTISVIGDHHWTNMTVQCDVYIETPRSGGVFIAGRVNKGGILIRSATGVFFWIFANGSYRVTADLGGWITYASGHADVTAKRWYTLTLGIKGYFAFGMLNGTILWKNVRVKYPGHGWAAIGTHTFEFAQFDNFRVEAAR

glycolipid biosynthesis = conditions: as disclosed in EP-A-0698012; cited from earlier work

CCCCCN1CC(O)C(O)C(O)C1CO [Example 3, 3,4,5-Piperidinetriol, 1-pentyl-2-(hydroxymethyl)-, (2S,3R,4R,5S)]
IC50 (human recombinant GCS): 4 µM

CCCCN1C[C@H](O)[C@@H](O)[C@H](O)[C@H]1CO [NB-DNJ, N-butyldeoxynojirimycin]
IC50 (Human α-glucosidase): < 20 µM

CCCCN1C[C@H](O)[C@@H](O)[C@@H](O)[C@H]1CO [NB-DGJ, N-butyldeoxygalactonojirimycin]
IC50 [1]: 3.4 µM | Ki [2]: 85 µM | Ki (Human β-galactosidase): 40 µM | IC50 [3]: 370 µM

CCCCN1C[C@@H](O)[C@@H](O)[C@H](O)[C@H]1CO [NB-DMJ]
inhibition of glycolipid biosynthesis (glycolipid biosynthesis): do not act as inhibitors

CCCCN1C[C@H](NC(C)=O)[C@@H](O)[C@H](O)[C@H]1CO [NB-NAG]
inhibition of glycolipid biosynthesis (glycolipid biosynthesis): do not act as inhibitors

CCCCN1CC(O)C(O)C(O)C1CO [Example 5, 3,4,5-Piperidinetriol, 1-butyl-2-hydroxymethyl)-, (2S,3S,4R,5S)]
Ki [2]: 8000 µM

CCCCN1C[C@@H](O)[C@H](O)[C@H](O)[C@@H]1C [NB-DFJ]
inhibition of glycolipid biosynthesis (glycolipid biosynthesis): do not act as inhibitors
